One assay has as its target ALK protein (Homo sapiens, UniProt Q9UM73). Kind of assay: Western-blot half degradation concentration (DC50) of ALK protein in H3122 cells. The class given is cell-based. The settings on record: 24 h drug treatment, read-out: DC50 (nM)/ H3122 cell line. The method, then: (§1) ALK-positive SR cells (human large cell immunoblastic lymphoma) were purchased from the American Type Culture Collection (ATCC); H3122 cells (human non-small cell lung cancer) were from the Shanghai University of Science and Technology Lin Haifan's research group.
(§2) The cells used in this present disclosure were cultured in a 37° C. incubator containing 5% CO2.
DC50 (drug concentration corresponding to protein degradation to 50%) calculation: according to the gray value of the corresponding Western blotting band after drug treatment, fitting the relationship curve between drug concentration and gray value to calculate the drug concentration range corresponding to half of the gray value.

A further assay has as its system SR cells. Kind of assay: Half inhibitory concentration (IC50) on ALK-positive SR cell proliferation (CCK-8). The format is cell-based. The conditions noted are these: Homo sapiens; SR cells, 72 h drug treatment, CCK-8; read-out: IC50 (nM)/ SR cell line. The method, then:
as §1, §2
SR cells were seeded in 100 μL RPMI1640 complete medium at a density of 10,000 cells/well. 100 μL of the inoculated cells were treated with 0.5 μL diluted PROTAD compound of the present disclosure to be tested at 10 successively decreasing concentrations (starting at the highest concentration of 10 μM; 5-fold serial dilutions) After the cells were treated with the drug for 72 h, cell viability was determined according to the CCK-8 reagent operating instructions. The negative control was DMSO, and the positive control was a commercial inhibitor. After CCK-8 treatment for 2 h, the value of O.D.450 was measured using a microplate reader.

A further assay concerns MV-4-11 cells. Kind of assay: Half inhibitory concentration (IC50) on BET-expressing tumor cells, CCK-8, MV-4-11.
[1] abbreviates: Homo sapiens, MV4-11, read-out: IC50 (nM)/MV-4-11 cell line, MV-4-11 cells, 48/72 h, CCK-8.
Where [2] appears, read: read-out: IC50 (nM)/MV-4-11 cell line, MV-4-11 cells, 48/72 h, CCK-8.

Like-named read-outs stand apart in the source and are kept apart here.

Sequence of ALK protein (Q9UM73 with tags, fused parts or gaps): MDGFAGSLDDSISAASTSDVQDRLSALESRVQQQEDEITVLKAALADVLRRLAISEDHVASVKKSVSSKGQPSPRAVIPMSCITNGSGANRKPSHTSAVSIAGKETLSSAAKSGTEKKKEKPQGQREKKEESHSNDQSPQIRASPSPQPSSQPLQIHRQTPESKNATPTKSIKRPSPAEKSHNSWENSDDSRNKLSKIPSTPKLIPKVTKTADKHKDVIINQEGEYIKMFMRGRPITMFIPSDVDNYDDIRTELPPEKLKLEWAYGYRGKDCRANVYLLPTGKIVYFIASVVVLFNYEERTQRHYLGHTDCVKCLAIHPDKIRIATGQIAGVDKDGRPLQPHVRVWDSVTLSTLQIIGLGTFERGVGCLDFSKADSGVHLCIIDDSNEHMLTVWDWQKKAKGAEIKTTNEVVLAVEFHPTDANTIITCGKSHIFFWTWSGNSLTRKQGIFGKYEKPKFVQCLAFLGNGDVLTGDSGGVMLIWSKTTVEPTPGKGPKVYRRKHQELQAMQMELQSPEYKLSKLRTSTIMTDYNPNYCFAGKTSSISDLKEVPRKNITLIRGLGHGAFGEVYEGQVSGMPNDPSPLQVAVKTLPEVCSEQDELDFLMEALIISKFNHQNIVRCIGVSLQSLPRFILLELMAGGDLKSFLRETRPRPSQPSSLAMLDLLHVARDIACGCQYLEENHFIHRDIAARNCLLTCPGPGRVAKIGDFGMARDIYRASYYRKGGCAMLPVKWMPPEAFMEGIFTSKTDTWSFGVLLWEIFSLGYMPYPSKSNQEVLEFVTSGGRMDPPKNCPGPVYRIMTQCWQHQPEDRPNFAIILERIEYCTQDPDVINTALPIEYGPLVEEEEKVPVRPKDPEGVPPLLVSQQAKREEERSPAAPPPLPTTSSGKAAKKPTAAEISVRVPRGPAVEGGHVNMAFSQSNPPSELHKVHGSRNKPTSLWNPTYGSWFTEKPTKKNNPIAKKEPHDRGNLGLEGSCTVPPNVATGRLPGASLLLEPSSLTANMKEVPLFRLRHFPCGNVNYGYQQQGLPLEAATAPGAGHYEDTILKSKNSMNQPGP
Method for MV-4-11 cells: Determination of the Half Inhibitory Concentration (IC50) of PROTAD Compounds on Tumor Cells
MV-411 cells, MM1S cells and SR cells were seeded in 100 μL IMDM/RPMI1640/DMEM complete medium at a density of 15000/10000 cells/well; MDA-MB-231 cells, MDA-MB-468 cells, and MDA-MB453 cells were seeded in 100 μL IMDM/RPMI1640/DMEM complete medium at a density of 3000/5000 cells/well, respectively. 100 μL of the inoculated cells were treated with 0.5 μL diluted PROTAD compounds of the present disclosure to be tested at 10 successively decreasing concentrations (starting at the highest concentration of 10 μM; 5-fold serial dilutions). After the cells were treated with the tested drugs 48/72 h, the cell viability was determined according to the CCK-8 reagent manual. The negative control was DMSO, and the positive control was a commercial inhibitor. After CCK-8 treatment for 2 h, the value of O.D.450 was measured using a microplate reader.

Turning to `CCc1cc2c(cc1N1CCN(C(=O)CSc3cccc4c3C(=O)N(C3CCC(=O)NC3=O)C4=O)CC1)C(C)(C)c1[nH]c3cc(C#N)ccc3c1C2=O` (centres unmarked) [SIAIS164068, 8-(4-(2-((2-(2,6-dioxopiperidin-3-yl)-1,3-dioxoisoindolin-4-yl)thio)acetyl)piperazin-1-yl)-9-ethyl-6,6-dimethyl-11-oxo-6,11-dihydro-5H-benzo[b]carbazole-3-carbonitrile], the DC50 at ALK protein turned out to be 104 nM.
Turning to `CCc1cc2c(cc1N1CCN(C(=O)CCSc3cccc4c3C(=O)N(C3CCC(=O)NC3=O)C4=O)CC1)C(C)(C)c1[nH]c3cc(C#N)ccc3c1C2=O` (centres unmarked) [SIAIS164069, 8-(4-(3-((2-(2,6-dioxopiperidin-3-yl)-1,3-dioxoisoindolin-4-yl)thio)propanoyl)piperazin-1-yl)-9-ethyl-6,6-dimethyl-11-oxo-6,11-dihydro-5H-benzo[b]carbazole-3-carbonitrile], at ALK protein, the DC50 lay in the range of 100 to 500 nM.
Take `CCc1cc2c(cc1N1CCN(C(=O)CCCSc3cccc4c3C(=O)N(C3CCC(=O)NC3=O)C4=O)CC1)C(C)(C)c1[nH]c3cc(C#N)ccc3c1C2=O` (centres unmarked) [SIAIS164070, 8-(4-(4-((2-(2,6-dioxopiperidin-3-yl)-1,3-dioxoisoindolin-4-yl)thio)butanoyl)piperazin-1-yl)-9-ethyl-6,6-dimethyl-11-oxo-6,11-dihydro-5H-benzo[b]carbazole-3-carbonitrile]: the DC50 on ALK protein lay within 100 to 500 nM.
The same measure, in the same setting: the value for `CCc1cc2c(cc1N1CCN(C(=O)CCCCCSc3cccc4c3C(=O)N(C3CCC(=O)NC3=O)C4=O)CC1)C(C)(C)c1[nH]c3cc(C#N)ccc3c1C2=O` (centres unmarked) [SIAIS164071, 8-(4-(6-((2-(2,6-dioxopiperidin-3-yl)-1,3-dioxoisoindolin-4-yl)thio)hexanoyl)piperazin-1-yl)-9-ethyl-6,6-dimethyl-11-oxo-6,11-dihydro-5H-benzo[b]carbazole-3-carbonitrile] was 204 nM; that for `CCc1cc2c(cc1N1CCN(C(=O)CCCCSc3cccc4c3C(=O)N(C3CCC(=O)NC3=O)C4=O)CC1)C(C)(C)c1[nH]c3cc(C#N)ccc3c1C2=O` (centres unmarked) [SIAIS164072, 8-(4-(5-((2-(2,6-dioxopiperidin-3-yl)-1,3-dioxoisoindolin-4-yl)thio)pentanoyl)piperazin-1-yl)-9-ethyl-6,6-dimethyl-11-oxo-6,11-dihydro-5H-benzo[b]carbazole-3-carbonitrile] was 63 nM; that for `CCc1cc2c(cc1N1CCN(C(=O)CCCCCCSc3cccc4c3C(=O)N(C3CCC(=O)NC3=O)C4=O)CC1)C(C)(C)c1[nH]c3cc(C#N)ccc3c1C2=O` (centres unmarked) [SIAIS164073, 8-(4-(7-((2-(2,6-dioxopiperidin-3-yl)-1,3-dioxoisoindolin-4-yl)thio)heptanoyl)piperazin-1-yl)-9-ethyl-6,6-dimethyl-11-oxo-6,11-dihydro-5H-benzo[b]carbazole-3-carbonitrile] was 100 to 500 nM.
As for `COc1cc(N2CCC(NC(=O)CSc3cccc4c3C(=O)N(C3CCC(=O)NC3=O)C4=O)CC2)ccc1Nc1ncc(Cl)c(Nc2ccccc2P(C)(C)=O)n1` (centres unmarked) [SIAIS164137, N-(1-(4-((5-chloro-4-((2-(dimethylphosphoryl)phenyl)amino)pyrimidin-2-yl)amino)-3-methoxyphenyl)piperidin-4-yl)-2-((2-(2,6-dioxopiperidin-3-yl)-1,3-dioxoisoindolin-4-yl)thio)acetamide], the IC50 in the assay on SR cells is 16.8 ± 5.7 nM. At ALK protein, the DC50 worked out at 500 nM.
The matching figures for `COc1cc(N2CCC(NC(=O)CCSc3cccc4c3C(=O)N(C3CCC(=O)NC3=O)C4=O)CC2)ccc1Nc1ncc(Cl)c(Nc2ccccc2P(C)(C)=O)n1` (centres unmarked) [SIAIS164138, N-(1-(4-((5-chloro-4-((2-(dimethylphosphoryl)phenyl)amino)pyrimidin-2-yl)amino)-3-methoxyphenyl)piperidin-4-yl)-3-((2-(2,6-dioxopiperidin-3-yl)-1,3-dioxoisoindolin-4-yl)thio)propanamide]: 24.1 ± 17.5 nM and 100 nM.
With `COc1cc(N2CCC(NC(=O)CCCSc3cccc4c3C(=O)N(C3CCC(=O)NC3=O)C4=O)CC2)ccc1Nc1ncc(Cl)c(Nc2ccccc2P(C)(C)=O)n1` (centres unmarked) [SIAIS164139, N-(1-(4-((5-chloro-4-((2-(dimethylphosphoryl)phenyl)amino)pyrimidin-2-yl)amino)-3-methoxyphenyl)piperidin-4-yl)-4-((2-(2,6-dioxopiperidin-3-yl)-1,3-dioxoisoindolin-4-yl)thio)butanamide], the IC50 in the assay with SR cells is 11.6 ± 6 nM. Besides, the DC50 on ALK protein was determined as 500 nM.
The matching figures for `COc1cc(N2CCC(NC(=O)CCCCSc3cccc4c3C(=O)N(C3CCC(=O)NC3=O)C4=O)CC2)ccc1Nc1ncc(Cl)c(Nc2ccccc2P(C)(C)=O)n1` (centres unmarked) [SIAIS164140, N-(1-(4-((5-chloro-4-((2-(dimethylphosphoryl)phenyl)amino)pyrimidin-2-yl)amino)-3-methoxyphenyl)piperidin-4-yl)-5-((2-(2,6-dioxopiperidin-3-yl)-1,3-dioxoisoindolin-4-yl)thio)pentanamide]: 8.7 ± 4.9 nM and 500 nM.
The matching figures for `COc1cc(N2CCC(NC(=O)CCCCCCSc3cccc4c3C(=O)N(C3CCC(=O)NC3=O)C4=O)CC2)ccc1Nc1ncc(Cl)c(Nc2ccccc2P(C)(C)=O)n1` (centres unmarked) [SIAIS164142, N-(1-(4-((5-chloro-4-((2-(dimethylphosphoryl)phenyl)amino)pyrimidin-2-yl)amino)-3-methoxyphenyl)piperidin-4-yl)-7-((2-(2,6-dioxopiperidin-3-yl)-1,3-dioxoisoindolin-4-yl)thio)heptanamide]: 6.4 ± 4 nM and 50 nM.
On to `Cc1sc2c(c1C)C(c1ccc(Cl)cc1)=N[C@@H](CC(=O)NCCOCCSc1cccc3c1CN(C1CCC(=O)NC1=O)C3=O)c1nnc(C)n1-2` (stereo partly drawn) [SIAIS213100, 2-((S)-4-(4-chlorophenyl)-2,3,9-trimethyl-6H-thieno[3,2-f][1,2,4]triazolo[4,3-a][1,4]diazepin-6-yl)-N-(2-(2-((2-(2,6-dioxopiperidin-3-yl)-1-oxoisoindolin-4-yl)thio)ethoxy)ethyl)acetamide], for which, in the assay on MV-4-11 cells (setting [1]), the IC50 is 0.5 ± 0.1 nM.
In the case of `Cc1sc2c(c1C)C(c1ccc(Cl)cc1)=N[C@@H](CC(=O)N1CCNCC1)c1nnc(C)n1-2` [SIAIS213113], the IC50 in the assay with MV-4-11 cells (setting [1]) is 21.6 nM; in the assay with MV-4-11 cells (setting [2]), 12.9 nM.
On to `Cc1sc2c(c1C)C(c1ccc(Cl)cc1)=N[C@@H](CC(=O)N1CCN(CCCSc3cccc4c3CN(C3CCC(=O)NC3=O)C4=O)CC1)c1nnc(C)n1-2` (stereo partly drawn) [SIAIS213117, 3-(4-((3-(4-(2-((S)-4-(4-chlorophenyl)-2,3,9-trimethyl-6H-thieno[3,2-f][1,2,4]triazolo[4,3-a][1,4]diazepin-6-yl)acetyl)piperazin-1-yl)propyl)thio)-1-oxoisoindolin-2-yl)piperidine-2,6-dione], for which the IC50 with MV-4-11 cells (setting [1]) amounted to 0.063 nM; in the assay with MV-4-11 cells (setting [2]), 0.041 nM.
In the same order, the values of `Cc1sc2c(c1C)C(c1ccc(Cl)cc1)=N[C@@H](CC(=O)NCCN1CCNCC1)c1nnc(C)n1-2` [SIAIS213130] are 29.8 nM and 17.7 nM.
Take `Cc1sc2c(c1C)C(c1ccc(Cl)cc1)=N[C@@H](CC(=O)NCCN1CCN(CCCCCSc3cccc4c3CN(C3CCC(=O)NC3=O)C4=O)CC1)c1nnc(C)n1-2` (stereo partly drawn) [SIAIS213133, 2-((S)-4-(4-chlorophenyl)-2,3,9-trimethyl-6H-thieno[3,2-f][1,2,4]triazolo[4,3-a][1,4]diazepin-6-yl)-N-(2-(4-(5-((2-(2,6-dioxopiperidin-3-yl)-1-oxoisoindolin-4-yl)thio)pentyl)piperazin-1-yl)ethyl)acetamide]: the IC50 in the assay on MV-4-11 cells (setting [1]) came out at 0.036 ± 0.045 nM.
Take `Cc1sc2c(c1C)C(c1ccc(Cl)cc1)=N[C@@H](CC(=O)NCCN1CCN(CCCSc3cccc4c3CN(C3CCC(=O)NC3=O)C4=O)CC1)c1nnc(C)n1-2` (stereo partly drawn) [SIAIS213136, 2-((S)-4-(4-chlorophenyl)-2,3,9-trimethyl-6H-thieno[3,2-f][1,2,4]triazolo[4,3-a][1,4]diazepin-6-yl)-N-(2-(4-(3-((2-(2,6-dioxopiperidin-3-yl)-1-oxoisoindolin-4-yl)thio)propyl)piperazin-1-yl)ethyl)acetamide]: the IC50 was determined as 0.068 nM with MV-4-11 cells (setting [1]) and 0.04 nM in the assay with MV-4-11 cells (setting [2]).
In the same order, the values of `Cc1sc2c(c1C)C(c1ccc(Cl)cc1)=N[C@@H](CC(=O)N1CCN(CCCCSc3cccc4c3CN(C3CCC(=O)NC3=O)C4=O)CC1)c1nnc(C)n1-2` (stereo partly drawn) [SIAIS213138, 3-(4-((4-(4-(2-((S)-4-(4-chlorophenyl)-2,3,9-trimethyl-6H-thieno[3,2-f][1,2,4]triazolo[4,3-a][1,4]diazepin-6-yl)acetyl)piperazin-1-yl)butyl)thio)-1-oxoisoindolin-2-yl)piperidine-2,6-dione] are 0.084 nM and 0.051 nM.
Take `Cc1sc2c(c1C)C(c1ccc(Cl)cc1)=N[C@@H](CC(=O)NCCN1CCN(CCCCSc3cccc4c3CN(C3CCC(=O)NC3=O)C4=O)CC1)c1nnc(C)n1-2` (stereo partly drawn) [SIAIS213139, 2-((S)-4-(4-chlorophenyl)-2,3,9-trimethyl-6H-thieno[3,2-f][1,2,4]triazolo[4,3-a][1,4]diazepin-6-yl)-N-(2-(4-(4-((2-(2,6-dioxopiperidin-3-yl)-1-oxoisoindolin-4-yl)thio)butyl)piperazin-1-yl)ethyl)acetamide]: the IC50 in the assay with MV-4-11 cells (setting [1]) came out at 0.027 ± 0.006 nM.

The record behind these values is patent US12226424B2, “Target protein degradation compounds, their anti-tumor use, their intermediates and use of intermediates” (ShanghaiTech University, priority 2018, dated 2025).
